Laboratory results from article PMC12058161, “The plant matrix of Artemisia annua L. for the treatment of malaria: Pharmacodynamic and pharmacokinetic studies” (PLOS One, 2025).
Values joined by “and” are separate entries in the source; they are usually repeats but may differ in a detail not shown here. Equal values may be shown once.

Columns and labels:
P-glycoprotein (P-gp) = target: T1, P-glycoprotein (P-gp) (Homo sapiens, UniProt P08183); assay: Rhodamine 123 (P-gp substrate) transport across drug-treated Caco-2 cell monolayers; type: cell-based; details: co-incubated with R123, 10 μM, Caco-2 monolayer, Fig 6
T1 construct: The transport of R123 in normal Caco-2 cell monolayers or drug-treated Caco-2 cell monolayers was further studied; host or cells: Caco-2
T1 sequence (P08183 whole entry): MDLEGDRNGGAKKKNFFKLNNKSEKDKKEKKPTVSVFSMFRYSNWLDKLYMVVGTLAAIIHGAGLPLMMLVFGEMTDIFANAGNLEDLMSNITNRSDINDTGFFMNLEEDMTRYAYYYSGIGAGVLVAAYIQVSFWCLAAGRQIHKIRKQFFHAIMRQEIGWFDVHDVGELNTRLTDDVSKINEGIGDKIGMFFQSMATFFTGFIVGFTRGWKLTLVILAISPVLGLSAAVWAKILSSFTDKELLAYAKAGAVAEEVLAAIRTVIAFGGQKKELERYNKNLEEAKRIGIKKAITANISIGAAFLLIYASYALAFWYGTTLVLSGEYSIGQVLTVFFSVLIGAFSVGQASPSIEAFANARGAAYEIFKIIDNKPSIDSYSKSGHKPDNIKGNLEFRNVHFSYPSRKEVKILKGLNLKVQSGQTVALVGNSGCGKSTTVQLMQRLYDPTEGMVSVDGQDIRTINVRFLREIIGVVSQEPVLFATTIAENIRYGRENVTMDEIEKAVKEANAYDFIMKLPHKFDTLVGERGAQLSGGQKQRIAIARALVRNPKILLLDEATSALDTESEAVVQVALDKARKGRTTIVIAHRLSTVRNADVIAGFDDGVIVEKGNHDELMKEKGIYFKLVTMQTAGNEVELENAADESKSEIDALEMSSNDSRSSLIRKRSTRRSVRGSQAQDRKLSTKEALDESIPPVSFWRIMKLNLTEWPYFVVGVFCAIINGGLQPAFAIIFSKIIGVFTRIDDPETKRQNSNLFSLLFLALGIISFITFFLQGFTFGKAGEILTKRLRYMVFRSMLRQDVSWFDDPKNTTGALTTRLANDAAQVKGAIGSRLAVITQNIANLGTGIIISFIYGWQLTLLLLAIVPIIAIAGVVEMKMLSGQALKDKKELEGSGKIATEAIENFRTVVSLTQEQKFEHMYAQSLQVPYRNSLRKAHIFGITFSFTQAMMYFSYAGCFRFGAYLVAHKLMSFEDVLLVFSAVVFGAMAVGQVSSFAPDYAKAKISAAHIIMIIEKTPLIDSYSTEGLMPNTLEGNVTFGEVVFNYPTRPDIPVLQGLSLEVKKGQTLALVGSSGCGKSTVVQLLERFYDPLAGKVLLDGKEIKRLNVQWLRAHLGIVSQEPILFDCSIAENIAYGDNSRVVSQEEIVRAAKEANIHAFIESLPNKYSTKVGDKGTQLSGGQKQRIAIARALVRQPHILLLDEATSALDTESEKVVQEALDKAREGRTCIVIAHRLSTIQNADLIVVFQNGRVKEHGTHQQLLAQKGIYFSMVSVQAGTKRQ
Excerpt: The human epithelial cell line Caco-2 serves as a widely recognized model for the intestinal epithelial barrier, frequently utilized in the assessment of drug absorption and transport mechanisms. In this study, we evaluated drug absorption and distribution in vitro with the help of the Caco-2 cell model. Caco-2 cells were purchased from the Chinese Academy of Medical Sciences (Beijing, China, Resource No. 3111C0001CCC000100). The cells were resuscitated and inserted into culture flasks. Caco-2 cells were passaged with DMEM high glucose medium containing 10% (V/V) FBS, 1% (V/V) non-essential amino acid solution and 100 U/mL penicillin-streptomycin double antibiotic solution, and cultured at 37°C in a 5% CO2 incubator. […] The integrity of the cell monolayer was checked by measuring the transmembrane electrical resistance (TEER) of the monolayer cells with a Millicell-ERS electrode (Millipore Corp., Billerica, MA, USA). Caco-2 cells were used for transport experiments 17–21 days after inoculation. Besides, only monolayers with TEER values above 400 Ω/cm^2 were used in the study.
The transport of R123 in normal Caco-2 cell monolayers or drug-treated Caco-2 cell monolayers was further studied. […] The transport buffer containing 5 μM of R123 was added on either the AP or the BL side of the inserts, as described above. […] The concentrations of R123 were immediately analyzed by SpectraMax iD3. The excitation wavelength was set at 485 nm, and the emission wavelength at 535 nm. Papp values across the cell monolayers were calculated according to the equation: Papp = dQ/dt × 1/(A × C0), where dQ/dt represents the rate of drug transport. […] The efflux ratio was calculated using the Papp (BL-AP) to Papp (AP-BL) ratio.

in vivo = details: male, Sprague Dawley, rat, po, 352 mg/kg
[1] = Stability of the five compounds in SD rat plasma (QC samples, UHPLC-ESI-MS/MS); type: in vitro ADME; details: for mean measured concentration: rat plasma, mean of 5; for stability, Accuracy (measured versus nominal concentration) / stability, mean ± SD (measured concentration): SD rat plasma, n=5
Protocol: The method was validated according to the US Food and Drug Administration (FDA) Bioanalytical Method Validation Guidance as follows: [1] specificity was assessed by analyzing blank plasma, blank plasma spiked with standard solutions and rat plasma samples after oral administration. Each calibration curve was plotted using the concentration of the standard solution as the horizontal coordinate and the ratio of analyte to internal standard peak area as the vertical coordinate. The lower limit of quantification (LLOQ) refers to the lowest concentration, which is typically 10 times the signal-to-noise ratio. It has an acceptable accuracy of ± 20% and a precision of less than 20% [3]. Quality Control (QC) samples (low, medium and high concentrations) were prepared for each analyte. Five samples were analyzed at each concentration level and three consecutive batches were determined to calculate the accuracy and precision of the method. Extraction recovery was assessed by the ratio of the average peak area of routinely prepared QC samples (low, medium, and high concentrations) to the post-extraction plasma sample. Likewise, matrix effect was assessed by the ratio of peak areas between post-extraction samples spiked with analytes and mobile phases spiked with the same concentration of analytes.

Caco-2 cells = assay: Cytotoxicity in Caco-2 cells, CCK-8 assay; type: cell-based, human; details: for Cell survival rate%: mean; for cck-8 mean (survival fraction): mean of 6
Protocol: Caco-2 cells were cultured in 96-well plates for 48 h at a seeding density of 5.0 × 10^3 cells/well before the addition of drugs. […] The final concentration of DMSO was 0.05% (v/v). Experiments were initiated by replacing the culture medium in each well with 100 μL of sample solutions at 37°C in the CO2 incubator. After 48 h of incubation, the medium was removed and 10 μL of CCK-8 reagent in the serum-free medium was added to each well. The plates were then incubated at 37°C for another 2 h. At the end of the incubation period, the plates were quantified by reading the absorbance at 450 nm on a micro-plate multi-detection instrument, SpectraMax iD3 with SoftMax® Pro (Molecular Devices Corporation Sunnyvale, CA, USA). The percentage of cell viability was calculated based on the absorbance measured relative to the absorbance of cells exposed to the negative control.

[2] = male, Sprague Dawley, rat, in vivo, po, 352 mg/kg
[3] = nominal 160 ng/mL, 3 freeze-thaw cycles
[4] = nominal 160 ng/mL, 7 days at -80°C
[5] = nominal 160 ng/mL, Room temperature 24h
[6] = nominal 1000 ng/mL, 3 freeze-thaw cycles
[7] = nominal 1000 ng/mL, 7 days at -80°C
[8] = nominal 1000 ng/mL, Room temperature 24h
[9] = nominal 5000 ng/mL, 3 freeze-thaw cycles
[10] = nominal 5000 ng/mL, 7 days at -80°C
[11] = nominal 5000 ng/mL, Room temperature 24h
[12] = Caco-2, concentration 10 μmol/L
[13] = Caco-2, concentration 20 μmol/L
[14] = Caco-2, concentration 40 μmol/L
[15] = Caco-2, concentration 80 μmol/L

C=C(C(=O)O)[C@@H]1CC[C@@H](C)[C@@H]2CCC(C)=C[C@@H]21 [AA, Artemisinic acid]
reduction of R123 transport from the BL side to the AP side (P-glycoprotein (P-gp)): 26.82% | AUC(0-inf) (in vivo): 23700 ± 4990 ng·h/mL | AUC(0-t) (in vivo): 23000 ± 4720 ng·h/mL | Cmax (in vivo; Cmax): 5370 ± 590 ng/mL | half-life (in vivo; t1/2): 4.29 ± 1.37 h | mean measured concentration ([1]; AA QC 160ng, 3 freeze-thaw cycles): 175.436 ng/mL | mean measured concentration ([1]; AA QC 160ng, 7 days at -80°C): 168.832 ng/mL | mean measured concentration ([1]; AA QC 160ng, Room temperature 24h): 151.908 ng/mL | mean measured concentration ([1]; AA QC 1000ng, 3 freeze-thaw cycles): 947.702 ng/mL | mean measured concentration ([1]; AA QC 1000ng, 7 days at -80°C): 919.418 ng/mL | mean measured concentration ([1]; AA QC 1000ng, Room temperature 24h): 955.778 ng/mL | mean measured concentration ([1]; AA QC 5000ng, 3 freeze-thaw cycles): 4777.45 ng/mL | mean measured concentration ([1]; AA QC 5000ng, 7 days at -80°C): 4737.9 ng/mL | mean measured concentration ([1]; AA QC 5000ng, Room temperature 24h): 4689.24 ng/mL | stability, Accuracy (measured versus nominal concentration) [1, 3]: 109.65% | stability, mean ± SD (measured concentration) [1, 3]: 175 ± 7.36 ng/mL | stability, Accuracy (measured versus nominal concentration) [1, 4]: 105.52% | stability, mean ± SD (measured concentration) [1, 4]: 169 ± 8.62 ng/mL | stability, Accuracy (measured versus nominal concentration) [1, 5]: 94.94% | stability, mean ± SD (measured concentration) [1, 5]: 152 ± 6.95 ng/mL | stability, Accuracy (measured versus nominal concentration) [1, 6]: 94.77% | stability, mean ± SD (measured concentration) [1, 6]: 948 ± 56.6 ng/mL | stability, Accuracy (measured versus nominal concentration) [1, 7]: 91.94% | stability, mean ± SD (measured concentration) [1, 7]: 919 ± 34.8 ng/mL | stability, Accuracy (measured versus nominal concentration) [1, 8]: 95.58% | stability, mean ± SD (measured concentration) [1, 8]: 956 ± 68.0 ng/mL | stability, Accuracy (measured versus nominal concentration) [1, 9]: 95.55% | stability, mean ± SD (measured concentration) [1, 9]: 4777 ± 82.6 ng/mL | stability, Accuracy (measured versus nominal concentration) [1, 10]: 94.76% | stability, mean ± SD (measured concentration) [1, 10]: 4738 ± 174 ng/mL | stability, Accuracy (measured versus nominal concentration) [1, 11]: 93.78% | stability, mean ± SD (measured concentration) [1, 11]: 4689 ± 298 ng/mL | Cell survival rate%, single replicate (Caco-2 cells; Caco-2, 5μmol/L): 86.78% and 81.42% and 81.32% and 82.7% and 86.07% and 80.23% | Cell survival rate%, single replicate (Caco-2 cells; Caco-2, 10μmol/L): 83.23% and 82.76% and 85.19% and 84.02% and 81.01% (2×) | Cell survival rate%, single replicate (Caco-2 cells; Caco-2, 20μmol/L): 82.79% and 80.95% and 80.96% and 82.01% and 83.04% and 83.63% | Cell survival rate%, single replicate (Caco-2 cells; Caco-2, 40μmol/L): 79.21% and 80.38% and 82.01% and 81.79% and 85.15% and 82.39% | Cell survival rate%, single replicate (Caco-2 cells; Caco-2, 80μmol/L): 81.2% and 78.64% and 82.71% and 80.82% and 78.89% and 79.03% | cck-8 cell survival as fraction, single replicate (Caco-2 cells; Caco-2, concentration 5 μmol/L): 0.8678 and 0.8142 and 0.8132 and 0.827 and 0.8607 and 0.8023 | Cell survival rate% (Caco-2 cells; Caco-2, concentration 5 μmol/L): 83.09% | cck-8 mean (survival fraction) (Caco-2 cells; Caco-2, concentration 5 μmol/L): 0.83 | cck-8 cell survival as fraction, single replicate (Caco-2 cells; [12]): 0.8323 and 0.8276 and 0.8519 and 0.8402 and 0.8101 | Cell survival rate% (Caco-2 cells; [12]): 82.87% | cck-8 mean (survival fraction) (Caco-2 cells; [12]): 0.83 | cck-8 cell survival as fraction, single replicate (Caco-2 cells; [13]): 0.8279 and 0.8095 and 0.8096 and 0.8201 and 0.8304 and 0.8363 | Cell survival rate% (Caco-2 cells; [13]): 82.23% | cck-8 mean (survival fraction) (Caco-2 cells; [13]): 0.82 | cck-8 cell survival as fraction, single replicate (Caco-2 cells; [14]): 0.7921 and 0.8038 and 0.8201 and 0.8179 and 0.8515 and 0.8239 | Cell survival rate% (Caco-2 cells; [14]): 81.82% | cck-8 mean (survival fraction) (Caco-2 cells; [14]): 0.82 | cck-8 cell survival as fraction, single replicate (Caco-2 cells; [15]): 0.812 and 0.7864 and 0.8271 and 0.8082 and 0.7889 and 0.7903 | Cell survival rate% (Caco-2 cells; [15]): 80.22% | cck-8 mean (survival fraction) (Caco-2 cells; [15]): 0.80 | CL [2]: 0.001 ± 0.001 L/h | CLz [2]: 24 mL/day/kg
